# From paper PMC11237035, “Glutathione determines chronic myeloid leukemia vulnerability to an inhibitor of CMPK and TMPK” (Communications Biology, 2024)
# Values joined by “and” are separate entries in the source; they are usually repeats but may differ in a detail not shown here. Equal values may be shown once.
# Assays:
# Format in all cases: cell-based, human
# KOPM28 cells [1] = experiment: GSH/GSSG-Glo measurement, KOPM28 cells
# Protocol: (§1) After 3 days, cells were analyzed by viability assays.
# (§2) The GSH/GSSG-Glo™ Assay Kit (Promega, V6611) was used for luminescent-based measurement of cellular GSH and GSSG by Tecan Spark 10 microplate reader.
# TCCS cells [2] = experiment: GSH/GSSG-Glo measurement, TCCS cells
# Protocol: as §1, §2
# TCCS cells [3] = experiment: DNA fiber assay (replication speed), TCCS cells; details: erastin 0.5 μM, 16 h
# Protocol: as §1
# (§3) The DNA fiber assay was performed as described previously. Briefly, cells were sequentially treated with the medium containing 25 μM of CldU (Sigma-Aldrich, C6891) and then 250 μM of IdU (Sigma-Aldrich, I7125) for 20 min. After washing, cells were suspended in PBS (1000 cells/ μL). 2 μL of cell suspension was spotted on slides. After 5 min, 10 μL spread solution (200 mM Tris-HCl, pH 7.5, 50 mM EDTA, and 0.5% SDS) was spotted on the cell droplet and spread on slides. The slides were then fixed with methanol/acetic acid (3:1), followed by denaturation with 2.5 M HCl. After blocking with 5% BSA in TBST, slides were stained with rat anti-BrdU antibody (which detects CldU but not IdU, OBT0030, 1:2000, AbDSerotec) and mouse anti-BrdU antibody (which detects IdU but not CldU, 7580, 1:1000, BD Biosciences) at 4 °C for overnight. The next day, slides were washed with TBST, followed by staining with the secondary antibodies of goat anti-rat IgG conjugated with TRITC (Jackson Lab) and goat anti-mouse IgG conjugated with FITC. Images of DNA fibers were acquired using a microscope (Olympus). The lengths of red- and green-labeled fibers were determined by FluoView3.0 software (Olympus).
# KOPM28 cells [4] = experiment: DNA fiber assay (replication speed), KOPM28 cells; details: erastin 0.5 μM, 16 h
# Protocol: as §1, §3
compound,measurement,setting,value
CCOc1ccccc1-n1c(C(C)N2CCN(C(=O)COc3ccc(Cl)cc3)CC2)nc2ccccc2c1=O (stereo not drawn) [erastin],GSH% relative to K562 in 7e (Figure 7f),"KOPM28 cells [1]; KOPM28, Erastin treated, per replicate",6.981% and 5.472% and 15%
same,GSH level,"KOPM28 cells [1]; KOPM28 cells, erastin 0.5 μM, 16 h",drastically reduced
same,GSH level,"TCCS cells [2]; TCCS cells, erastin 0.5 μM, 16 h",drastically reduced
same,GSH% relative to K562 in 7e (Figure 7f),"TCCS cells [2]; TCCS, Erastin treated, per replicate",12.1585% and 8.793% and 13.8%
same,replication stress (DNA fiber),TCCS cells [3],induced replication stress
same,replication stress (DNA fiber),KOPM28 cells [4],induced replication stress
